Source: patent US12180214B2, “Crystalline forms of (s)-4-amino-6-((1-(3-chloro-6-phenylimidazo[1,2-b]pyridazine-7-yl)ethyl)amino)pyrimidine-5-carbonitrile as inhibitors of phosphatidylinositol-3-kinase” (HUTCHISON MEDIPHARMA LIMITED, priority 2018, dated 2024)
Converted amounts (≈) assume the structure as drawn.

Legend:
Format in all cases: physicochemical
[1] = Stability of Form I, Form IV, and Form V under high temperature, high humidity and illumination conditions; conditions: for Stability (chemical purity and crystalline form), conclusion: high temperature, high humidity, and illumination conditions for 10 days
Description: Determination method: the test samples of Form I, Form IV, and Form V of compound of Formula A were placed on the culture dishes respectively, which were uncovered and placed in sealed clean containers. The containers were placed under the conditions of a temperature of 60° C., a temperature of 25° C. and a relative humidity of 92.5%±5%, and an illumination of 4500 lx±500 lx respectively for 10 days. Then sampled, investigated for the purity and crystalline form of the samples, and compared the investigation results.

[2] = Stability of Form IV mixed with excipients (starch, microcrystalline cellulose); conditions: high temperature, high humidity, and illumination conditions, 30 days
Description: Determination method: 50 mg of samples of Form IV of compound of Formula A were mixed with 200 mg of excipients starch and microcrystalline cellulose respectively. The mixtures were used as Lest samples and placed on the culture dishes respectively, which were uncovered and placed in sealed clean containers. Then the containers were placed under the conditions of a temperature of 60° C., a temperature of 25° C. and a relative humidity of 92.5%±5%, and an illumination of 4500 lx±500 lx respectively for 30 days. Then sampled, investigated for the change of crystalline form of the samples, and compared the investigation results.

[3] = Solubility of Form I, Form IV, and Form V in buffers of different pH; conditions: for solubility at 2 hours / solubility at 0.5 hour: buffer, 37 °C, thermodynamic from solid; for Solubility in the test buffers, conclusion: buffers pH 1.2-6.8, 37° C.
Description: Determination method: excess amount of samples of Form I, Form IV, and Form V of compound of Formula A were suspended in the buffers of different pH respectively. The system was saturated by shaking for a period of time at 37° C. in a water bath of constant temperature. Then the system was filtered, and the filtrate was used for determining solubility of the samples. The buffers of different pH were prepared according to the US pharmacopeia (USP40-NF35).

[4] = Hygroscopicity by dynamic vapor sorption (DVS); conditions: relative humidity of 0-95% at 25° C.
Description: Determination method: the test samples of Form I, Form IV, and Form V of compound of Formula A were placed in the sample dishes of the dynamic vapor sorption instrument (DVS-INTRINSIC) respectively. Then the weight gains by moisture absorption of the samples were measured at a relative humidity of 0-95% at 25° C. The results were shown in FIG. 16, FIG. 17, and FIG. 18.

[5] = High humidity (92.5% RH), 25° C., 5 days
[6] = High humidity (92.5% RH), 25° C., 10 days
[7] = High temperature (60° C.), 5 days
[8] = High temperature (60° C.), 10 days
[9] = Illumination (4500 Lx), 10 days

SMILES | Chemical purity (%) ([1]; 0 day) | Chemical purity (%) [1, 5] [%] | Chemical purity (%) [1, 6] [%] | Chemical purity (%) [1, 7] [%] | Chemical purity (%) [1, 8] [%] | Chemical purity (%) ([1]; Illumination (4500 Lx), 5 days) | Chemical purity (%) [1, 9] [%] | Stability (chemical purity and crystalline form), conclusion [1] | Solubility in the test buffers, conclusion [3] | Hygroscopicity (weight gain by moisture absorption) [4] | further results
C[C@H](Nc1ncnc(N)c1C#N)c1cc2ncc(Cl)n2nc1-c1ccccc1 [Form IV, (S)-4-amino-6-((1-(3-chloro-6-phenylimidazo[1,2-b]pyridazin-7-yl)ethyl)amino)pyrimidine-5-carbonitrile] | 99.27 | 99.68 | 99.68 | 99.57 | 99.68 | 99.59 | 99.55 | stable | good solubility | non-hygroscopic | Stability mixed with excipients, conclusion [2]: stable; solubility at 2 hours ([3]; pH 1.2, simulated gastric fluid, buffer pH 1.2, shaken at 37° C. water bath for 2 hours): 8560 µg/mL (≈ 21900 µM); solubility at 2 hours ([3]; pH 2.1, aqueous buffer, buffer pH 2.1, shaken at 37° C. water bath for 2 hours): 500 µg/mL (≈ 1280 µM); solubility at 2 hours ([3]; pH 4.5, aqueous buffer, buffer pH 4.5, shaken at 37° C. water bath for 2 hours): 20 µg/mL (≈ 51.2 µM); solubility at 2 hours ([3]; pH 6.8, aqueous buffer, buffer pH 6.8, shaken at 37° C. water bath for 2 hours): 20 µg/mL (≈ 51.2 µM)
C[C@H](Nc1ncnc(N)c1C#N)c1cc2ncc(Cl)n2nc1-c1ccccc1 [Form V, (S)-4-amino-6-((1-(3-chloro-6-phenylimidazo[1,2-b]pyridazin-7-yl)ethyl)amino)pyrimidine-5-carbonitrile] | 99.70 | 99.88 | 99.87 | 99.88 | 99.87 | 99.85 | 99.81 | stable | good solubility | non-hygroscopic | Solubility ([3]; buffer pH 1.2, shaken at 37° C. water bath for 2 hours): 9640 µg/mL (≈ 24700 µM); Solubility ([3]; buffer pH 2.1, shaken at 37° C. water bath for 2 hours): 580 µg/mL (≈ 1480 µM); Solubility ([3]; buffer pH 4.5, shaken at 37° C. water bath for 2 hours): 20 µg/mL (≈ 51.2 µM); Solubility ([3]; buffer pH 6.8, shaken at 37° C. water bath for 2 hours): 20 µg/mL (≈ 51.2 µM)
C[C@H](Nc1ncnc(N)c1C#N)c1cc2ncc(Cl)n2nc1-c1ccccc1 [Form I, (S)-4-amino-6-((1-(3-chloro-6-phenylimidazo[1,2-b]pyridazin-7-yl)ethyl)amino)pyrimidine-5-carbonitrile] | 99.76 | 99.65 | 99.60 | 99.63 | 99.63 | 99.61 | 99.45 | stable | good solubility | non-hygroscopic | solubility at 0.5 hour ([3]; pH 1.2, simulated gastric fluid, buffer pH 1.2, shaken at 37° C. water bath for 0.5 hour): 10800 µg/mL (≈ 27600 µM); solubility at 0.5 hour ([3]; pH 2.1, aqueous buffer, buffer pH 2.1, shaken at 37° C. water bath for 0.5 hour): 800 µg/mL (≈ 2050 µM); solubility at 0.5 hour ([3]; pH 4.5, aqueous buffer, buffer pH 4.5, shaken at 37° C. water bath for 0.5 hour): 40 µg/mL (≈ 102 µM); solubility at 0.5 hour ([3]; pH 6.8, aqueous buffer, buffer pH 6.8, shaken at 37° C. water bath for 0.5 hour): 30 µg/mL (≈ 76.8 µM)
